In paper PMC3963473, “Structure–Activity Relationship Studies of Pyrrolone Antimalarial Agents” (Chemmedchem, 2013):
≈ marks a conversion by molar mass, not a printed value. Like-named read-outs stand apart in the source and are kept apart here.

Experiments:
[1] = system: Plasmodium falciparum K1; test: microbe, parasite or virus in culture; type: cell-based; conditions: for EC50: Plasmodium falciparum, K1, read-out: EC50 P. falc.; for drop / loss in activity (fold) / decrease in EC50 value relative to the unsubstituted analogue 56: P. falciparum K1; for drop / loss in activity (fold): C-ring variants, comparator not stated explicitly; for decrease in EC50 value relative to the unsubstituted analogue 56: relative to 56
Protocol: (§1) V. Design and Results of the in vitro & in vivo Studies.
A. Drug inhibition of in vitro cultured P. falciparum parasite:2 All in vitro assays were carried out twice independently. In vitro activity against the erythrocytic stages of P. falciparum was determined by using a 3H-hypoxanthine incorporation assay,5-6 using the […]
were dissolved in DMSO at 10 mg/mL and added to parasite cultures incubated in RPMI […]
haematocrit (0.3% parasitaemia). Serial doubling dilutions of each drug were prepared in […]
After 48 h, 50 µL of 3H-hypoxanthine (= 0.5 µCi) was added to each well of the plate. The plates were incubated for an additional 24 h under the same conditions. The plates were then harvested with a Betaplate cell harvester (Wallac, Zurich, Switzerland), and the red blood cells were transferred onto a glass fiber filter and then washed with distilled water. The dried filters were inserted into a plastic foil with 10 mL of scintillation fluid and were counted in a Betaplate™ liquid scintillation counter (Wallac, Zurich, […]

[2] = system: L6 cells; test: In vitro cytotoxicity assay in L6 cells (Alamar Blue); type: cell-based; conditions: Rattus norvegicus
Protocol: as §1
A. Drug inhibition of in vitro cultured P. falciparum parasite:2 All in vitro assays were carried out twice independently. In vitro activity against the erythrocytic stages of P. […]
B. In vitro cytotoxicity assay:2 Assays were performed in 96-well microtiter plates, each […]
mM) and 10% fetal bovine serum, and 4 x 10^4 L-6 cells (a primary cell line derived from rat skeletal myoblasts). Serial drug dilutions of seven 3-fold dilution steps covering a range […]
After 72 h of incubation the plates were inspected […]
of Alamar Blue was then added to each well and the plates incubated for another 2 h.
Then the plates were read with a Spectramax Gemini XS microplate fluorometer (Molecular Devices Cooperation, Sunnyvale, CA, USA) using an excitation wave length of […]
Data were analysed using the microplate reader software Softmax Pro (Molecular Devices Cooperation, Sunnyvale, CA, USA).

[3] = Aqueous solubility estimated by nephelometry; type: physicochemical; conditions: kinetic from dmso stock
Protocol: III. Physicochemical Evaluation […]
Solubility Estimation: Aqueous solubility was estimated by nephelometry.
Compound in DMSO was spiked into either water, pH 6.5 phosphate buffer or 0.01N HCl
(approx. pH 2.0) with the final DMSO concentration being 1%. Samples were then
analyzed by Nephelometry to determine the solubility range as described previously.1

[4] = Table 1, A-ring variants, mammalian L6 cells, mean of two independent assays, read-out: EC50 L6 cells
[5] = Table 1, water, nephelometry, 1% DMSO, read-out: Solubility water
[6] = Table 2, C-ring variants, L6 cells, mean of two independent assays, read-out: EC50 L6 cells
[7] = aqueous buffer, pH 6.5 phosphate buffer, nephelometry, 1% DMSO, read-out: Solubility pH 6.5
[8] = simulated gastric fluid, pH 2.0 (0.01N HCl), nephelometry, 1% DMSO, read-out: Solubility pH 2.0

SMILES | EC50 [1] [µM] | EC50 [2, 4] [µM] | melting point [°C] | further results
CCOC(=O)C1=C(C)N/C(=C/c2cc(C)n(C3CCN(Cc4ccccc4C(F)(F)F)CC3)c2C)C1=O [Compound 29] | 0.0005 | 1.7 |  | EC50 (P. falciparum K1) ([1]; values in nM): sub-nanomolar; solubility [3, 5]: > 125 µM
CCOC(=O)C1=C(C)N/C(=C/c2cc(C)n(C3CCN(CCN4CCOCC4)CC3)c2C)C1=O [Compound 37] | 5.3 | 89 | 115 to 118 | 
CCOC(=O)C1=C(C)N/C(=C/c2cc(C)n(C3CCN(C)CC3)c2C)C1=O [Compound 19] | 1.4 | 7.8 | 130 to 135 | 
CCOC(=O)C1=C(C)N/C(=C/c2cc(C)n(C3CCN(Cc4ccc(N5CCOCC5)nc4)CC3)c2C)C1=O [Compound 52] | 1.5 | 50 | > 280 | 
CCOC(=O)C1=C(C)N/C(=C/c2cc(C)n(C3CCN(CCN4CCCCC4)CC3)c2C)C1=O [Compound 38] | 2.4 | 97 | 122 to 125 | 
CCCn1ccc2c(c1=O)C(=O)/C(=C\c1cc(C)n(-c3ccccc3C(F)(F)F)c1C)N2 [Compound 59] | 0.15 |  | 180 to 185 | drop / loss in activity (fold) [1]: tenfold; EC50 [2, 6]: 34 µM
CCOC(=O)C1=C(C)N/C(=C/c2cc(C)n(C3CCN(Cc4ccn(C)n4)CC3)c2C)C1=O [Compound 45] | 0.15 | 36 | 180 to 184 | 
CCOC(=O)C1=C(C)N/C(=C/c2cc(C)n(C3CCN(CC4CCN(C)CC4)CC3)c2C)C1=O [Compound 42] | 1.4 | 81 | 230 to 235 | 
CCOC(=O)C1=C(C)N/C(=C/c2cc(C)n(C3CCN(CC(C)(C)C)CC3)c2C)C1=O [Compound 23] | 0.058 | 88 | 139 to 142 | 
CCOC(=O)C1=C(C)N/C(=C/c2cc(C)n(C3CCN(Cc4ccc(F)cc4)CC3)c2C)C1=O [Compound 26] | 0.024 | 51 |  | solubility [3, 5]: > 125 µM
CCOC(=O)C1=C(C)N/C(=C/c2cc(C)n(C3CCN(Cc4ccc(F)cc4F)CC3)c2C)C1=O [Compound 27] | 0.023 | 23 |  | solubility [3, 5]: > 125 µM
CCOC(=O)C1=C(C)N/C(=C/c2cc(C)n(C3CCN(Cc4ccc(C(F)(F)F)cc4)CC3)c2C)C1=O [Compound 28] | 0.002 | 5 |  | solubility [3, 7]: 6 to 12 µM (≈ 3.09 to 6.19 µg/mL); solubility [3, 5]: > 125 µM; solubility [3, 8]: 48 to 97 µM (≈ 24.7 to 50 µg/mL)
CCOC(=O)C1=C(C)N/C(=C/c2cc(C)n(C3CCN(C(C)c4ccc(C(F)(F)F)cc4)CC3)c2C)C1=O (stereo not shown) [Compound 35] | 0.007 | 4.26 |  | 
COc1cc([C@@H]2c3cc4c(cc3[C@H](O)[C@H]3COC(=O)[C@H]23)OCO4)cc(OC)c1OC [podophyllotoxin, reference compound] |  |  |  | EC50 ([2]; L6, read-out: EC50 L6 cells): 0.009 to 0.022 µM
CCOC(=O)C1=C(C)N/C(=C/c2cc(C)n(C3CCN(Cc4cccn4C)CC3)c2C)C1=O [Compound 50] | 0.012 | 3 | 190 to 194 | 
CCOC(=O)C1=C(C)N/C(=C/c2cc(C)n(C3CCN(Cc4ccc(N5CCOCC5)cc4)CC3)c2C)C1=O [Compound 54] | 2.6 | 53 | > 280 | 
CCOC(=O)C1=C(C)N/C(=C/c2cc(C)n(C3CCN(Cc4ncc[nH]4)CC3)c2C)C1=O [Compound 46] | 1.2 | 28 | 185 to 190 | 

SMILES | EC50 [1] [µM] | EC50 [2, 4] [µM] | melting point [°C] | further results
CCOC(=O)C1=C(C)N/C(=C/c2cc(C)n(C3CCN(CCc4ccc(F)cc4)CC3)c2C)C1=O [Compound 34] | 0.096 | 22 |  | solubility [3, 7]: 13 to 26 µM (≈ 6.23 to 12.5 µg/mL); solubility [3, 8]: 52 to 100 µM (≈ 24.9 to 48 µg/mL)
CCOC(=O)C1=C(C)N/C(=C/c2cc(C)n(C3CCN(CC4CC4)CC3)c2C)C1=O [Compound 39] | 3.5 | 14 | 142 to 146 | 
CCCN1CCC(n2c(C)cc(/C=C3/NC(C)=C(C(=O)OCC)C3=O)c2C)CC1 [Compound 22] | 1.1 | 6.6 | 145 to 148 | 
Cc1cc(/C=C2/Nc3ccn(CCN(C)C)c(=O)c3C2=O)c(C)n1-c1ccccc1C(F)(F)F [Compound 61] | 0.25 |  | 125 to 128 | decrease in EC50 value relative to the unsubstituted analogue 56 [1]: fivefold; EC50 [2, 6]: 35 µM
CCOC(=O)C1=C(C)N/C(=C/c2cc(C)n(C3CCN(CCC(C)C)CC3)c2C)C1=O [Compound 21] | 0.19 | 22 | 158 to 162 | 
CCOC(=O)C1=C(/C=C/N(C)C)N/C(=C/c2cc(C)n(-c3ccccc3C(F)(F)F)c2C)C1=O [Compound 55, (E)-Ethyl 5-((2,5-dimethyl-1-(2-(trifluoromethyl)phenyl)-1H-pyrrol-3-yl)methylene)-2-((E)-2-(dimethylamino)vinyl)-4-oxo-4,5-dihydro-1H-pyrrole-3-carboxylate] | 0.061 |  |  | EC50 [2, 6]: 56 µM; solubility ([3]; Table 2, water, read-out: Solubility water): > 125 µM
CCOC(=O)C1=C(C)N/C(=C/c2cc(C)n(C3CCN(CCc4ccc(OC)cc4)CC3)c2C)C1=O [Compound 32] | 0.083 | 72 |  | solubility [3, 7]: 25 to 51 µM (≈ 12.3 to 25.1 µg/mL); solubility [3, 8]: 100 to 200 µM (≈ 49.2 to 98.3 µg/mL)
CCOC(=O)C1=C(C)N/C(=C/c2cc(C)n(C3CCN(Cc4nccn4C)CC3)c2C)C1=O [Compound 49] | 1 | 16 | 186 to 189 | 
Cc1cc(/C=C2/Nc3ccn(CCN4CCOCC4)c(=O)c3C2=O)c(C)n1-c1ccccc1C(F)(F)F [Compound 60] | 0.23 |  | 180 to 185 | decrease in EC50 value relative to the unsubstituted analogue 56 [1]: fivefold; EC50 [2, 6]: 65 µM
CCOC(=O)C1=C(C)N/C(=C/c2cc(C)n(C3CCN(Cc4cnc(N5CCOCC5)nc4)CC3)c2C)C1=O [Compound 53] | 0.075 | 28 | 194 to 199 | 
Cc1cc(/C=C2/Nc3ccn(Cc4ccccc4)c(=O)c3C2=O)c(C)n1-c1ccccc1C(F)(F)F [Compound 62, (E)-5-Benzyl-2-((2,5-dimethyl-1-(2-(trifluoromethyl)phenyl)-1H-pyrrol-3-yl)methylene)-1H-pyrrolo[3,2-c]pyridine-3,4(2H, 5H)dione] | 0.23 |  | 195 to 200 | drop / loss in activity (fold) [1]: fivefold; EC50 [2, 6]: 43 µM
CCOC(=O)C1=C(C)N/C(=C/c2cc(C)n(C3CCN(CCc4ccc(C(F)(F)F)cc4)CC3)c2C)C1=O [Compound 33] | 0.13 | 19 |  | 
CCOC(=O)C1=C(C)N/C(=C/c2cc(C)n(C3CCN(Cc4cc(C)on4)CC3)c2C)C1=O [Compound 47] | 0.1 | 42 | 185 to 188 | 
CCOC(=O)C1=C(C)N/C(=C/c2cc(C)n(C3CCN(CCc4ccccc4)CC3)c2C)C1=O [Compound 31] | 0.32 | 107 |  | 
CCOC(=O)C1=C(C)N/C(=C/c2cc(C)n(C3CCNCC3)c2C)C1=O [Compound 18] | 12 | > 250 | > 250 | 
CCOC(=O)C1=C(C)N/C(=C/c2cc(C)n(C3CCN(CC4CCOCC4)CC3)c2C)C1=O [Compound 41] | 0.11 | 43 | 180 to 183 | 
